Laboratory results reported in paper PMC8318587, “Structure-guided microbial targeting of antistaphylococcal prodrugs” (eLife, 2021).
Values after ≈ are worked out from the molar mass of the structure shown. Read-outs that look alike come from different tables or passages of the source.

Experiments:
[1] = test system: S. aureus (JE2, NTML transposon mutants, Newman resistant isolates); test: POM-HEX half-maximal growth inhibitory concentration (IC50), microtiter broth dilution; type: cell-based; conditions: Staphylococcus aureus
Method: Half-maximal inhibitory concentration (IC50) determination was performed using microtiter broth dilution in clear 96-well plates ([European Committee for Antimicrobial Susceptibility Testing (EUCAST) of the ES of CM and ID (ESCMID), 2000]). Briefly, POM-HEX was added to 75 µL LB media at a final concentration of 20–50 µM POM-HEX and 0.5% DMSO, with POM-HEX concentrations varying according to resistant strain. Subsequently, POM-HEX was serially diluted in LB media containing 0.5% DMSO for a total of 10 dilutions. Two wells were left without drug, one used to define 100% growth, and the other used to control for media contamination and to define 0% growth. Seventy-five microliters of mid-log phase S. aureus diluted to 1 × 10^5 colony forming units/mL were subsequently added to the plate. Following inoculation, plates were incubated at 37°C with shaking, and OD600 measurements were taken every 20 min for a total of 16 hr. Half-maximal inhibitory concentrations (IC50) were determined by fitting the OD600 of each condition following 10 hr of growth to a nonlinear regression using GraphPad Prism software. Experiments were performed in triplicate with technical duplicates.
Generation of POM-HEX resistant strains was performed by plating log-phase S. aureus Newman on LB agar containing 3.33 μM POM-HEX and incubating at 37°C overnight. Surviving single colonies were grown overnight in LB media and frozen in 10% glycerol for long term storage. All assays were performed from fresh overnight inoculations from glycerol stocks.

S. aureus Newman [2] = test: Minimum inhibitory concentration (MIC) in liquid LB media; type: cell-based; conditions: Staphylococcus aureus, NEWMAN
Method: (§1) Antibiotic resistance frequency was determined on LB agar plates containing 4× and 10×, the minimum inhibitory concentrations of several antibiotics. MICs were determined for S. aureus Newman in liquid LB media. […] Briefly, S. aureus Newman was grown in LB media to late log-phase and centrifuged at 4000 × g for 15 min before resuspension at an OD600 nm of 30 (~1E11 CFU/mL) in LB media. One hundred microliter aliquots of concentrated S. aureus was plated in duplicate on selective and non-selective plates and incubated at 37°C. After 24 hr, mutation rates were calculated by counting the number of colonies present and dividing by the total number of colonies plated. Experiments were performed in triplicate.

S. aureus Newman [3] = type: cell-based, Staphylococcus aureus; conditions: LB agar, 24 hr, mean ± SD
Method: as §1

GloB = test system: GloB; parameters: method as in Mikati et al., 2020; conditions: ref Mikati et al., 2020; cited from earlier work

`CC(C)(C)C(=O)OCOP(=O)(OCOC(=O)C(C)(C)C)C1CCCN(O)C1=O` (stereo not shown) [POM-HEX] gave an IC50 ([1]; 10 h, read-out: POM-HEX IC50, S. aureus JE2 parental strain, OD600 at 10 hr) of 1540 nM, an IC50 ([1]; read-out: POM-HEX IC50, transposon mutant NE64 (hemY, SAUSA300_1781)) of 1430 nM and an IC50 ([1]; read-out: POM-HEX IC50, transposon mutant NE145 (uvrA, SAUSA300_0742)) of 1460 nM. For the same compound, the IC50 ([1]; read-out: POM-HEX IC50, transposon mutant NE202 (SAUSA300_1902)) was 700 nM, the IC50 ([1]; read-out: POM-HEX IC50, transposon mutant NE223 (truA, SAUSA300_2173)) was 1390 nM and the IC50 ([1]; read-out: POM-HEX IC50, transposon mutant NE293 (SAUSA300_1285)) was 1410 nM. The IC50 ([1]; read-out: POM-HEX IC50, transposon mutant NE355 (gbaA, SAUSA300_2515)) was 1730 nM, the IC50 ([1]; read-out: POM-HEX IC50, transposon mutant NE364 (SAUSA300_0671)) was 1650 nM and the IC50 ([1]; read-out: POM-HEX IC50, transposon mutant NE377 (GloB, SAUSA300_1505)) was 10600 nM. The IC50 ([1]; read-out: POM-HEX IC50, transposon mutant NE386 (rot, SAUSA300_1708)) was 1400 nM, the IC50 ([1]; read-out: POM-HEX IC50, transposon mutant NE478 (phnE, SAUSA300_0142)) was 1610 nM and the IC50 ([1]; read-out: POM-HEX IC50, transposon mutant NE503 (estA, FrmB, SAUSA300_2564)) was 6280 nM. It also gave an IC50 ([1]; read-out: POM-HEX IC50, transposon mutant NE520 (proC, SAUSA300_1452)) of 1470 nM, an IC50 ([1]; read-out: POM-HEX IC50, transposon mutant NE532 (SAUSA300_2473)) of 1560 nM and an IC50 ([1]; read-out: POM-HEX IC50, transposon mutant NE541 (SAUSA300_0201)) of 1600 nM. It also gave an IC50 ([1]; read-out: POM-HEX IC50, transposon mutant NE621 (SAUSA300_0581)) of 1620 nM, an IC50 ([1]; read-out: POM-HEX IC50, transposon mutant NE812 (SAUSA300_0299)) of 1640 nM and an IC50 ([1]; read-out: POM-HEX IC50, transposon mutant NE929 (mtlF, SAUSA300_2105)) of 1700 nM. It also gave an IC50 ([1]; read-out: POM-HEX IC50, transposon mutant NE937 (fruC, SAUSA300_1993)) of 1670 nM, an IC50 ([1]; read-out: POM-HEX IC50, transposon mutant NE949 (hsdM2, SAUSA300_1752)) of 1730 nM and an IC50 ([1]; read-out: POM-HEX IC50, transposon mutant NE1039 (psuG, SAUSA300_0312)) of 1730 nM. It also gave an IC50 ([1]; read-out: POM-HEX IC50, transposon mutant NE1071 (capD, SAUSA300_0538)) of 1540 nM, an IC50 ([1]; read-out: POM-HEX IC50, transposon mutant NE1118 (dapD, SAUSA300_1290)) of 1690 nM and an IC50 ([1]; read-out: POM-HEX IC50, transposon mutant NE1127 (lpl4, SAUSA300_0414)) of 1720 nM. The IC50 ([1]; read-out: POM-HEX IC50, transposon mutant NE1173 (SAUSA300_1792)) was 1840 nM, the IC50 ([1]; read-out: POM-HEX IC50, transposon mutant NE1225 (SAUSA300_0421)) was 2150 nM and the IC50 ([1]; read-out: POM-HEX IC50, transposon mutant NE1238 (SAUSA300_0214)) was 2080 nM. The IC50 ([1]; read-out: POM-HEX IC50, transposon mutant NE1283 (tnp, SAUSA300_0028)) was 2100 nM, the IC50 ([1]; read-out: POM-HEX IC50, transposon mutant NE1296 (saeS, SAUSA300_0690)) was 2070 nM and the IC50 ([1]; read-out: POM-HEX IC50, transposon mutant NE1486 (phoP, SAUSA300_1639)) was 2180 nM. The IC50 ([1]; read-out: POM-HEX IC50, transposon mutant NE1505 (SAUSA300_0840)) was 2200 nM, the IC50 ([1]; read-out: POM-HEX IC50, transposon mutant NE1519 (accC, SAUSA300_1563)) was 1750 nM and the IC50 ([1]; read-out: POM-HEX IC50, transposon mutant NE1547 (SAUSA300_2508)) was 1480 nM. It also gave an IC50 ([1]; read-out: POM-HEX IC50, transposon mutant NE1610 (pdhD, SAUSA300_0996)) of 1230 nM, an IC50 ([1]; read-out: POM-HEX IC50, transposon mutant NE1682 (hlgB, SAUSA300_2367)) of 1370 nM and an IC50 ([1]; read-out: POM-HEX IC50, transposon mutant NE1723 (SAUSA300_0094)) of 1340 nM. For the same compound, the MIC (S. aureus Newman [2]) was 3.13 µg/mL (≈ 7.39 µM), the “Mutational frequency at 4× MIC” value (S. aureus Newman [3]) was 5.96 ± 1.60 E-07 and the “Mutational frequency at 10× MIC” value (S. aureus Newman [3]) was 2.92 ± 0.57 E-07. The “Prodrug activation product with GloB, in words” value (GloB) was “removes only one POM moiety”.
